Assay results from paper PMC6399351, “Cationic Intrinsically Disordered Antimicrobial Peptides (CIDAMPs) Represent a New Paradigm of Innate Defense with a Potential for Novel Anti-Infectives” (Scientific Reports, 2019).
≈ marks a conversion by molar mass, not a printed value. Read-outs that look alike come from different tables or passages of the source. Peptide text beside a SMILES is read from it. * marks the point of attachment. Palmitoyl = CCCCCCCCCCCCCCCC(=O)*

Columns and labels:
[1] = system: Corynebacterium simulans DSM 44415; assay: CFU assay of antimicrobial activity; format: cell-based; conditions: 10 mM NaP, pH 7.3, 1% TSB
Experimental: All purified peptides and recombinant proteins were applied using a colony forming unit (CFU) assay in different media. Bacteria were grown to early log-phase in BHI, washed either with 10 mM Na-P, pH 7.4/1% TSB or pH 5.5/1% TSB, or pH 5.5 without TSB or BHI, and adjusted to a concentration of 10^4–10^5 colony forming units (CFU)/ml. For cell number control, 100 µl aliquots were diluted 1:10, 1:100 and 1:1000 and plated in duplicates on BHI agar plates. […]
(§1) Then bacteria were incubated for 2 h at ambient temperature, if not otherwise stated. 10 µl of 0.01% (v/v) acetic acid, added to 100 µl aliquots of the bacteria in the respective medium, served as negative control. From each test, 1:10 and 1:100 dilutions were generated and plated as duplicates of 100 µl aliquots on BHI agar plates. After 16 h incubation at 37 °C, CFU were counted using a colony counter (Bio Kobe, Japan) and expressed as mean of the duplicate estimation to achieve a complete dose-response curve. All experiments were performed at serial dilutions in a concentration range of 100 µg/mL −25 ng/mL for recombinant HRNR fragments and 300 or 150 µg/mL–19 ng/mL for synthetic peptides.

[2] = system: Klebsiella pneumoniae ATCC 13883; conditions: CFU assay, 10 mM NaP
[3] = system: Prevotella oralis ATCC 33321; assay: CFU assay of antimicrobial activity; format: cell-based; conditions: 10 mM NaP, pH 7.3, 1% TSB
Experimental: All purified peptides and recombinant proteins were applied using a colony forming unit (CFU) assay in different media. Bacteria were grown to early log-phase in BHI, washed either with 10 mM Na-P, pH 7.4/1% TSB or pH 5.5/1% TSB, or pH 5.5 without TSB or BHI, and adjusted to a concentration of 10^4–10^5 colony forming units (CFU)/ml. For cell number control, 100 µl aliquots were diluted 1:10, 1:100 and 1:1000 and plated in duplicates on BHI agar plates. To 100 µl aliquots of the bacteria, suspended in the respective medium (10 mM Na-P buffer pH 7,0–7,4/ 1% (w/v) TSB; 10 mM Na-P buffer pH 5,5/ 1% (w/v) TSB; 10 mM Na-P buffer pH 7,0–7,4/ 1% (w/v) TSB pH 7,0–7,4/ 0,25% (w/v) glucose; […], respectively), 10 µl of a solution of the peptide or protein (two-fold dilutions, from 300 µg/ml or 150 µg/ml down to 19 ng/ml), dissolved in 0.01% (v/v) acetic acid, were added.
as §1

[4] = system: Acinetobacter baumannii ATCC 19606; assay: CO-ADD MIC, broth microdilution (CLSI); format: cell-based; conditions: Mueller–Hinton broth, 5 × 10^5 CFU/mL, 18 h 37 °C, by CO-ADD
Text: (§2) They were defined as the lowest peptide
(§3) Further details of the screening

[5] = system: Pseudomonas aeruginosa ATCC 27853; assay: CO-ADD MIC, broth microdilution (CLSI); format: cell-based; conditions: Mueller–Hinton broth, 5 × 10^5 CFU/mL, 18 h 37 °C, by CO-ADD
Text: as §2, §3

[6] = system: Streptococcus pneumoniae ATCC 33400; assay: CFU assay of antimicrobial activity; format: cell-based; conditions: 10 mM NaP, pH 7.3, 1% TSB
Experimental: (§4) All purified peptides and recombinant proteins were applied using a colony forming unit (CFU) assay in different media. Bacteria were grown to early log-phase in BHI, washed either with 10 mM Na-P, pH 7.4/1% TSB or pH 5.5/1% TSB, or pH 5.5 without TSB or BHI, and adjusted to a concentration of 10^4–10^5 colony forming units (CFU)/ml. For cell number control, 100 µl aliquots were diluted 1:10, 1:100 and 1:1000 and plated in duplicates on BHI agar plates. To 100 µl aliquots of the bacteria, suspended in the respective medium (10 mM Na-P buffer pH 7,0–7,4/ 1% (w/v) TSB; […]; 10 mM Na-P buffer pH 7,0–7,4/ 1% (w/v) TSB pH 7,0–7,4/ 0,25% (w/v) glucose; 10 mM Na-P buffer pH 5,5/ 0,25% (w/v) glucose, respectively), 10 µl of a solution of the peptide or protein (two-fold dilutions, from 300 µg/ml or 150 µg/ml down to 19 ng/ml), dissolved in 0.01% (v/v) acetic acid, were added.
as §1

[7] = system: Streptococcus pyogenes ATCC 12344; assay: CFU assay of antimicrobial activity; format: cell-based; conditions: 10 mM NaP, pH 7.3, 1% TSB
Experimental: as §4, §1

[8] = system: Peptostreptococcus magnus ATCC 15794; assay: CFU assay of antimicrobial activity; format: cell-based, Peptostreptococcus magnus (now Finegoldia magna); conditions: 10 mM NaP, pH 7.3, 1% TSB
Experimental: (§5) All purified peptides and recombinant proteins were applied using a colony forming unit (CFU) assay in different media. Bacteria were grown to early log-phase in BHI, washed either with 10 mM Na-P, pH 7.4/1% TSB or pH 5.5/1% TSB, or pH 5.5 without TSB or BHI, and adjusted to a concentration of 10^4–10^5 colony forming units (CFU)/ml. For cell number control, 100 µl aliquots were diluted 1:10, 1:100 and 1:1000 and plated in duplicates on BHI agar plates. To 100 µl aliquots of the bacteria, suspended in the respective medium (10 mM Na-P buffer pH 7,0–7,4/ 1% (w/v) TSB; 10 mM Na-P buffer pH 5,5/ 1% (w/v) TSB; 10 mM Na-P buffer pH 7,0–7,4/ 1% (w/v) TSB pH 7,0–7,4/ 0,25% (w/v) glucose; 10 mM Na-P buffer pH 5,5/ 0,25% (w/v) glucose, respectively), 10 µl of a solution of the peptide or protein (two-fold dilutions, from 300 µg/ml or 150 µg/ml down to 19 ng/ml), dissolved in 0.01% (v/v) acetic acid, were added.
Then bacteria were incubated for 2 h at ambient temperature, if not otherwise stated. 10 µl of 0.01% (v/v) acetic acid, added to 100 µl aliquots of the bacteria in the respective medium, served as negative control. […] After 16 h incubation at 37 °C, CFU were counted using a colony counter (Bio Kobe, Japan) and expressed as mean of the duplicate estimation to achieve a complete dose-response curve. […]

[9] = system: Staphylococcus hominis ATCC 27844; conditions: CFU assay, 10 mM NaP, pH 7.3, 1% TSB
[10] = system: Moraxella osloensis RV A2/2001; conditions: CFU assay, 10 mM NaP, pH 7.3, 1% TSB
[11] = system: Burkholderia cepacia ATCC 25416; conditions: CFU assay, 10 mM NaP
[12] = system: Lactobacillus crispatus DSM 20584; assay: CFU assay of antimicrobial activity; format: cell-based; conditions: 10 mM NaP, pH 7.3, 1% TSB
Experimental: as §5, §1

[13] = system: Klebsiella pneumonia ATCC 700603; conditions: MDR strain; CLSI, Mueller–Hinton broth, 5 × 10^5 CFU/mL, 18 h 37 °C, by CO-ADD

CCCCCCCCCCCCCCCC(=O)NCC(=O)N[C@@H](CCCNC(=N)N)C(=O)N[C@@H](CCCNC(=N)N)C(=O)NCC(=O)NCC(=O)N[C@@H](CCCNC(=N)N)C(=O)NCC(=O)NCC(=O)N[C@@H](CCCNC(=N)N)C(=O)NCC(=O)N[C@@H](CCCNC(=N)N)C(=O)NCC(=O)N[C@@H](CCCNC(=N)N)C(=O)O [Pal-GR13] (Palmitoyl-GRRGGRGGRGRGR-OH)
LD90 [1]: 0.59 µg/mL
LD90 ([2]; pH 5.5, 0.25% glucose): 0.15 µg/mL
LD90 ([2]; pH 7.3, 1% TSB): 1.18 µg/mL
LD90 [3]: 9.38 µg/mL
Minimal inhibitory concentration (MIC) [4]: 2 µg/mL (≈ 1.26 µM)
Minimal inhibitory concentration (MIC) [5]: 8 µg/mL (≈ 5.02 µM)
LD90 [6]: 2.35 µg/mL
LD90 [7]: 0.15 µg/mL
LD90 [8]: 4.7 µg/mL
LD90 [9]: 1.18 µg/mL
LD90 [10]: 0.59 µg/mL
LD90 ([11]; pH 5.5, 0.25% glucose): >300 µg/mL
LD90 ([11]; pH 7.3, 0.25% glucose): 4.7 µg/mL
LD90 ([11]; pH 7.3, 1% TSB): 18.75 µg/mL
LD90 [12]: 9.38 µg/mL
Minimal inhibitory concentration (MIC) [13]: ≥16 µg/mL
